Measured values: patent US10752581B2, “4-((2-hydroxy-3-methoxybenzyl)amino)benzenesulfonamide derivatives as potent and selective inhibitors of 12-lipoxygenase” (Eastern Virginia Medical School, priority 2013, dated 2020)
Entries after “also recorded” stand apart in the source; their conditions may differ. Marks after values point to notes of the source that are not given here.

Columns and labels:
washed human platelets [1] = assay: PAR4-AP-induced platelet aggregation; assay type: cell-based
Experimental: Blood was centrifuged at 200 g for 13 min at room temperature.

[2] = system: human donor islet preparations; assay: Glucose-stimulated insulin secretion in human islets; assay type: cell-based; conditions: cytokines (TNFα, IL-1β, IFNγ); 3 mM or 18 mM glucose
Experimental: FIGS. 3D and 3E show results from glucose-stimulated insulin secretion in human donor islet preparations in response to 3 mM glucose (Low) or 18 mM glucose (High) for control (untreated) islets. […] FIGS. 3D and 3E represent results obtained in different human donor islet preparations.

[3] = PBS buffer (pH 7.4) solubility; assay type: physicochemical; conditions: PBS buffer, pH 7.4, aqueous buffer
[4] = Microsomal stability (mouse); assay type: in vitro ADME
Caco-2 = Caco-2 assay permeability; assay type: in vitro ADME; conditions: A→B
washed human platelets [5] = assay: FcγRIIa-mediated platelet aggregation; assay type: cell-based; conditions: ML355 20 μM, 15 minutes; anti-CD9 stimulation or IV.3 + GAM cross-linking
Excerpt: (§1) Preparation of washed human platelets: Prior to blood collection written informed consent was obtained from all volunteers. Washed platelets were isolated from the blood of healthy volunteers as previously described (14). Washed platelets were resuspended in tyrodes buffer at 3.0×10^8 platelets/mL unless otherwise indicated.
(§2) FcγRIIa-mediated platelet activation: FcγRIIa-mediated platelet activation was initiated by two distinct models; either 1) FcγRIIa antibody cross-linking or 2) CD9 monoclonal antibody stimulation. To cross-link FcγRIIa, washed platelets were incubated with IV.3, an FcγRIIa mouse monoclonal antibody, for one minute followed by the addition of a goat anti-mouse (GAM) IgG antibody to cross-link FcγRIIa. The concentration of FcγRIIa cross-linking antibodies used for each experiment is indicated in the text. Alternatively, washed human platelets were stimulated with an anti-CD9 monoclonal antibody to activate FcγRIIa mediated signaling. Due to inter-individual variability in anti-CD9 response, a range of anti-CD9 concentration (0.25-1 μg/ml) was used to achieve an aggregation of EC80. […]
Platelet aggregation: Platelet aggregation was measured with a lumi-aggregometer (Chronolog Corp, Model 700D) under stirring conditions at 37° C.

[6] = system: FcγRIIa-stimulated platelets; assay: αIIbβ3 activation after FcγRIIa stimulation; assay type: cell-based, human; conditions: ML355 pre-treatment; IV.3 + GAM
Excerpt: as §1
as §2, with “signaling.” for “signaling. Due to inter-individual variability in anti-CD9 response, a range of anti-CD9 concentration (0.25-1 μg/ml) was used to achieve an aggregation of EC80.”
Alpha granule release and αIIbβ3 activation: Prior to stimulation, washed platelets were pre-incubated with a either FITC-conjugated P-selectin antibody or FITC-conjugated PAC-1, an antibody specific for the active conformation of αIIb3. […] Fluorescence intensity was measured by flow cytometry. Results are reported as mean fluorescence intensity.

[7] = system: FcγRIIa-stimulated platelets; assay: Syk phosphorylation after FcγRIIa cross-linking; assay type: cell-based, human; conditions: ML355 (20 μM)
Experimental: FIGS. 15A-15B show the role of 12-LOX in regulating the FcγRIIa signaling complex. Washed human platelets were pre-treated with ML355 (20 μM) or vehicle control prior to IV.3 and GAM stimulation. (FIG. 15A) Immunoprecipitation of FcγRIIa at 15, 30, and 60 seconds post crosslinking and measured for phosphorylation via Western blot. (FIG. 15B) Platelets were lysed following FcγRIIa cross-linking in the presence of ML355 or DMSO were immunoblotted for active (pY323) and total Syk.
Phosphorylation of FcγRIIa results in recruitment and activation of the tyrosine kinase Syk which is crucial for the formation of the LAT signalosome. The phosphorylation of Syk was measured following FcγRIIa stimulation of platelets in the presence or absence of ML355. The degree of Syk phosphorylation in response to FcγRIIa cross-linking in the presence of ML355 was varied in the subjects tested and may be due to inter-individual variability. […] To assess if 12-LOX regulates PLCy2 activation downstream of FcγRIIa, PLCy2 phosphorylation was measured in washed human platelets in the presence or absence of ML355. Platelets stimulated by FcγRIIa antibody cross-linking were phosphorylated within 15 seconds following stimulation. […]

[8] = system: FcγRIIa-stimulated platelets; assay: Calcium mobilization after FcγRIIa cross-linking; assay type: cell-based, human; conditions: ML355 (20 μM); compared to DMSO treated platelets
Experimental: (§3) FcγRIIa-mediated platelet activation: FcγRIIa-mediated platelet activation was initiated by two distinct models; either 1) FcγRIIa antibody cross-linking or 2) CD9 monoclonal antibody stimulation. To cross-link FcγRIIa, washed platelets were incubated with IV.3, an FcγRIIa mouse monoclonal antibody, for one minute followed by the addition of a goat anti-mouse (GAM) IgG antibody to cross-link FcγRIIa. The concentration of FcγRIIa cross-linking antibodies used for each experiment is indicated in the text. Alternatively, washed human platelets were stimulated with an anti-CD9 monoclonal antibody to activate FcγRIIa mediated signaling. Due to inter-individual variability in anti-CD9 response, a range of anti-CD9 concentration (0.25-1 μg/ml) was used to achieve an aggregation of EC80. In studies using the 12-LOX inhibitor (ML355), washed platelets were incubated with either ML355 (20 μM), or DMSO (vehicle control) for 15 minutes prior to FcγRIIa stimulation.
Calcium mobilization: Intracellular calcium release was measured as previously described. […] Platelets were stimulated by FcγRIIa antibody cross-linking and fluorescence intensity was measured in real-time by flow cytometry. Data is reported as the fold change in the fluorescence intensity comparing maximum fluorescence intensity relative to fluorescence intensity prior to platelet stimulation.

[9] = system: FcγRIIa-stimulated platelets; assay: PKC activation assay; assay type: cell-based, human
Experimental: as §3
PKC activation assay: Washed platelets were stimulated by FcγRIIa antibody cross-linking under stirring conditions (1100 rpm) in an aggregometer at 37° C. Reactions were stopped by the addition of 5X× Laemmli sample buffer at the indicated times. As a positive control platelets were treated with PMA ([…]), a direct PKC agonist, for one minute. […]

in vivo = conditions: male, CD1, mouse
[10] = Parallel Artificial Membrane Permeability Assay (PAMPA); conditions: PAMPA at pH 7.4
[11] = male, CD1, mouse, in vivo, intravenous, 3 mpk
[12] = male, CD1, mouse, in vivo, iv, 3 mg/kg
[13] = male, CD1, mouse, in vivo, po, 30 mg/kg

COc1cccc(CNc2ccc(S(=O)(=O)Nc3nc4ccccc4s3)cc2)c1O [Compound 35, N-(benzo[d]thiazol-2-yl)-4-((2-hydroxy-3-methoxybenzyl)amino)benzenesulfonamide]
PAR4-AP induced platelet aggregation (in words) (washed human platelets [1]): significantly reduce PAR4-AP induced platelet aggregation | platelet aggregation at 10 μM (washed human platelets [1]; 10 μM, PAR4-AP): did not inhibit platelet aggregation | glucose-stimulated insulin secretion with cytokines [2]: Uncoupling of glucose-stimulated insulin secretion by cytokines is inhibited | solubility [3]: < 5 µg/mL | Microsomal stability T1/2 (min) ([4]; in the presence of NADPH): >300^a min | half-life ([4]; microsomes, read-out: microsomal stability T1/2): > 5 h | permeability (1 × 10^−6 cm/s) (Caco-2): 1.5 (A→B)^a 1 × 10^−6 cm/s | FcγRIIa-mediated platelet aggregation (washed human platelets [5]): attenuated FcγRIIa-mediated platelet aggregation; also recorded: significantly attenuated aggregation | αIIbβ3 activation [6]: significant attenuated along multiple signaling steps | Syk phosphorylation [7]: attenuation of Syk phosphorylation in the presence of ML355 was minor | intracellular Ca2+ release [8]: decrease in intracellular Ca^2+ | PKC activation ([9]; ML355 (20 μM), 30 and 60 seconds, FcγRIIa cross-linking): significant decrease in PKC activation | PKC activation by PMA ([9]; PMA, a direct PKC activator): no difference in its ability to activate PKC | half-life (in vivo): 2.9 h | time remaining over IC50 value (In Vivo PK (Mouse); 30 mpk dosing): over 12 hours | % F (In Vivo PK (Mouse); PO, 30 mpk): 19.8% | Vd (In Vivo PK (Mouse); [11]): 0.55 L/kg | clearance (In Vivo PK (Mouse); [11]): 3.4 mL/min/kg | AUC(0-inf) (In Vivo PK (Mouse); [12]): 34 µM·h | Cmax (In Vivo PK (Mouse); [12]): 112 µM | Vd (In Vivo PK (Mouse); [12]): 0.55 L/kg | clearance (In Vivo PK (Mouse); [12]): 3.4 mL/min/kg | half-life (In Vivo PK (Mouse); [12]): 3.4 h | AUC(0-inf) (In Vivo PK (Mouse); [13]): 67 µM·h | Cmax (In Vivo PK (Mouse); [13]): 38 µM | bioavailability (In Vivo PK (Mouse); [13]): ~20% | half-life (In Vivo PK (Mouse); [13]): 2.9 h | permeability (1 × 10^−6 cm/s) [10]: 394^c 1 × 10^−6 cm/s
